Reference: patent US10154988B2, “Methods and compositions for treating schizophrenia” (The Johns Hopkins University, priority 2012, dated 2018)

Key:
[1] = system: aged-impaired (AI) rats; assay: eight-arm Radial Arm Maze task, one-hour delay (levetiracetam, valproate, combination); type: in vivo, rat; details: valproate on its own
Experimental: The effects of levetiracetam on the spatial memory retention of aged-impaired (AI) rats are assessed in a Radial Arm Maze (RAM) behavioral task using vehicle control and five different dosage levels of levetiracetam (1.25 mg/kg/day, 2.5 mg/kg/day, 5 mg/kg/day, 10 mg/kg/day and 20 mg/kg/day). RAM behavioral tasks are preformed on ten AI rats. All six treatment conditions are tested on all ten rats, as described above for the MWM test. The RAM apparatus used consists of eight equidistantly-spaced arms. An elevated maze arm (7 cm width×75 cm length) projects from each facet of an octagonal center platform (30 cm diameter, 51.5 cm height). Clear side walls on the arms are 10 cm high and are angled at 65° to form a trough. A food well (4 cm diameter, 2 cm deep) is located at the distal end of each arm. Froot Loops™ (Kellogg Company) are used as rewards. Blocks constructed of Plexiglas™ (30 cm height×12 cm width) can be positioned to prevent entry to any arm. Numerous extra maze cues surrounding the apparatus are also provided. The AI rats are initially subjected to a pre-training test (Chappell et al. Neuropharmacology 37: 481-487, 1998). The pre-training test consists of a habituation phase (4 days), a training phase on the standard win-shift task (18 days) and another training phase (14 days) in which a brief delay is imposed between presentation of a subset of arms designated by the experimenter (e.g., 5 arms available and 3 arms blocked) and completion of the eight-arm win-shift task (i.e., with all eight arms available). In the habituation phase, rats are familiarized to the maze for an 8-minute session on four consecutive days. In each of these sessions food rewards are scattered on the RAM, initially on the center platform and arms and then progressively confined to the arms. After this habituation phase, a standard training protocol is used, in which a food pellet is located at the end of each arm. Rats receive one trial each day for 18 days. Each daily trial terminates when all eight food pellets have been obtained or when either 16 choices are made or 15 minutes had elapsed. After completion of this training phase, a second training phase is carried out in which the memory demand is increased by imposing a brief delay during the trial. At the beginning of each trial, three arms of the eight-arm maze are blocked. Rats are allowed to obtain food on the five arms to which access is permitted during this initial ‘information phase’ of the trial. Rats are then removed from the maze for 60 seconds, during which time the barriers on the maze are removed, thus allowing access to all eight arms. Rats are then placed back onto the center platform and allowed to obtain the remaining food rewards during this ‘retention test’ phase of the trial. The identity and configuration of the blocked arms varies across trials. The number of “errors” the AI rats make during the retention test phase is tracked. An error occurs in the trial if the rats enter an arm from which food had already been retrieved in the pre-delay component of the trial, or if it re-visits an arm in the post-delay session that has already been visited. After completion of the pre-training test, rats are subjected to trials with more extended delay intervals, i.e., a one-hour delay, between the information phase (presentation with some blocked arms) and the retention test (presentation of all arms). During the delay interval, rats remain off to the side of the maze in the testing room, on carts in their individual home cages. AI rats are pretreated 30-40 minutes before daily trials with a one-time shot of the following six conditions: 1) vehicle control (0.9% saline solution); 2) levetiracetam (1.25 mg/kg/day); 3) levetiracetam (2.5 mg/kg/day); 4) levetiracetam (5 mg/kg/day); 5) levetiracetam (10 mg/kg/day); 6) levetiracetam (20 mg/kg/day); […] Injections are given every other day with intervening washout days. Each AI rat is treated with all six conditions within 23 days of testing. […]

[2] = system: MAM-treated rats; details: cited from earlier work
[3] = system: Memory-impaired aged rats; assay: Radial Arm Maze task, 2-hr delay, acute brivaracetam or seletracetam; type: in vivo, rat; details: 0.0625-4 mg/kg i.p. 30-40 min before test; repeated measures ANOVA (brivaracetam p=0.039, seletracetam p=0.009)
Experimental: (§1) The radial arm maze experiments uses acute administration of seletracetam (0-4 mg/kg), brivaracetam (0-4 mg/kg), or saline vehicle given by intraperitoneal injection (in a volume of 1 ml/kg) 30-40 min prior to test sessions. In the chronic treatment experiment, memory-impaired aged rats are implanted subcutaneously in the intrascapular region with osmotic mini-pumps (ALZET, Durect Corporation, Cupertino, Calif.) with brivaracetam (2 mg/kg/day) or saline vehicle starting two weeks prior to assessment in the water maze.
A radial arm maze (RAM) task is used to assess effects of acute drug treatment with seletracetam and brivaracetam. This protocol allows within-subject assessment across drugs at different doses. The radial maze consists of eight arms projecting from each side of an octagonal center platform, with a food well located at the distal end of each arm. Plexiglas blocks can be positioned to prevent entry into any arm. Extra-maze cues are provided in the room surrounding the maze and illumination is provided by an overhead light.
Pre-training, as described in detail in Chappell et al. Neuropharmacology 37: 481-487, (1998), consists of habituation, standard win-shift training, and win-shift training with delays interposed between information and memory test phases. […]

[4] = system: MAM-treated rats; details: rat, in vivo; cited from earlier work
[5] = system: Memory-impaired aged rats; assay: water maze probe test after chronic brivaracetam (osmotic mini-pumps); type: in vivo, rat; details: 2 mg/kg/day
Experimental: as §1
Rats are trained and tested in a novel water maze environment to assess the effect of drug treatment. The water maze used here is housed in a different building and is surrounded by curtains with a novel set of patterns relative to the maze used for initial assessment of cognitive status. The training protocol consists of 6 trials per day for 2 days to locate a submerged escape platform. On each trial, a rat is released in the maze from one of four equally spaced starting positions around the perimeter of the pool. The starting position varies from trial to trial. […] The rat is then removed from the platform and placed in a holding cage for another 40 s before the next trial. Approximately 24 hrs after the last training trial, a probe test in the absence of the escape platform is given to assess spatial memory.

CCCC(CCC)C(=O)O [valproate]
reducing the number of errors in the radial arm maze ([1]; 25 mg/kg subcutaneous): not at 25 mg/kg or 50 mg/kg | reducing the number of errors in the radial arm maze ([1]; 50 mg/kg subcutaneous): not at 25 mg/kg or 50 mg/kg | reducing the number of errors in the radial arm maze ([1]; 100 mg/kg subcutaneous): effective at 100 mg/kg

C#Cc1ccc2c(c1)C(c1ccccc1F)=N[C@H](C)c1c(C(=O)OCC)ncn1-2 [SH-053-2′F—R—CH3]
increased locomotor response to amphetamine in MAM-treated rats ([2]; rat, in vivo): reduced | cortical-evoked responses of HPC neurons ([2]; saline-treated and MAM-treated animals): diminished cortical-evoked responses | number of spontaneously active DA neurons in the VTA of MAM rats ([2]; systemic or infused into the ventral HPC, to levels of saline-treated rats): reduces the number of spontaneously active DA neurons

CC[C@@H](C(N)=O)N1C[C@H](C=C(F)F)CC1=O [seletracetam]
number of errors in the retention phase after the 2-hr delay, effect of dose [3]: significant effect as a function of dose

NC1=N[C@H](O)[C@H]2[C@H]3O[C@]4(O)O[C@@H]([C@@H](O)[C@@]2(N1)[C@@H]4O)[C@]3(O)CO [tetrodotoxin]
augmented amphetamine-induced locomotor behavior [4]: normalized | elevated DA neuron population activity [4]: completely reversed

CCC[C@@H]1CC(=O)N([C@@H](CC)C(N)=O)C1 [brivaracetam]
number of errors in the retention phase after the 2-hr delay, effect of dose [3]: significant effect as a function of dose | spatial bias for the target quadrant compared to the other quadrants ([5]; 14 days, n=3/group, t(2)=10.000, p=0.010): significant spatial bias | time in the target annulus versus vehicle-treated rats ([5]; t(4)=3.109, p=0.036): significantly more time in the target annulus | time in the target quadrant versus vehicle-treated rats ([5]; t(4)=3.881, p=0.018): significantly more time in the target quadrant
